The values below come from patent publication US4950605A, “FR-900493 substance, a process for its production and a pharmaceutical composition containing the same” (Fujisawa Pharmaceutical Co., Ltd., priority 1988, dated 1990).

In brackets after ≈: the same amount, converted by molar mass.

Series [1] deals with Staphylococcus aureus 1601-6. The series can be described thus: Antimicrobial activity, MIC on 1/2 Mueller-Hinton agar. The class given is cell-based. The conditions noted are these: 37° C., 24 hours. On the procedure:
(§1) Antimicrobial activities: (a) Test Method One loopful of an overnight culture (10^8 cells/ml) of each test bacteria in bouillon was streaked on 1/2 Mueller-Hinton agar containing the graded concentration of the FR-900493 substance and the minimal inbibitory concentration (MIC) was determined after incubation at 37° C. for 24 hours.

For series [2], the system named is Bacillus subtilis ATCC-6633. The series is described as above. The class given is cell-based. To be noted: 37° C., 24 hours. As to the method: as §1
In series [3] the test system is Staphylococcus aureus 209P JC-1. Described as above. The class given is cell-based. The conditions noted are these: 37° C., 24 hours. On the procedure: as §1
Series [4] in a line: Acute toxicity in mice. It is filed as in vivo. To be noted: intravenous; ddY mice, 4 weeks age, male. As to the method:
The median lethal dose (LD50) of the FR-900493 substance in mice (ddY, 4 weeks age, male) by intravenous administration was >500 mg/kg.

The subject of series [5] is Staphylococcus aureus 1601-47. Nature of the series: Protective efficacy in experimental infections in mice. It is filed as in vivo, ddY mouse (infected with Staphylococcus aureus 1601-47). The conditions noted are these: 30 mg/kg subcutaneous, one hour after intraperitoneal infection with 3×10^6 cells; male ddY mice 5 weeks; observed 2 days. On the procedure: Protective efficacy in experimental infections in mice: The in vivo activity of the FR-900493 substance against experimental infections due to Staphylococcus aureus 1601-47 was examined. One hour after the intraperitoneal injection of 3×10^6 cell of the test strain to each ddY mouse (male, 5 weeks age), the solution of the FR-900493 substance was administered subcutaneously.

Consider `CN(CCCN)[C@H](C(=O)O)[C@H](O[C@@H]1O[C@H](CN)[C@@H](O)[C@H]1O)[C@H]1O[C@@H](n2ccc(=O)[nH]c2=O)[C@H](O)[C@@H]1O` [FR-900493 substance], for which the “minimal inhibitory concentration (MIC)” value in series [1] is 6.25 µg/mL (≈ 12 µM); in series [2], 3.13 µg/mL (≈ 6.02 µM); in series [3], 3.13 µg/mL (≈ 6.02 µM). Moreover, the “median lethal dose (LD50)” value in series [4] was above 500 mg/kg. The Survival in series [5] was 100%.
